Assay results taken from US4426447A, “Homocitric acid oligoriboside derivative for prevention of dental caries” (Zaidan Hojin Biseibutsu Kagaku Kenkyu Kai, priority 1980, dated 1984).
Where a name gives a salt, the structure may show the parent alone. Read-outs that look alike come from different tables or passages of the source.

How the values were obtained:
dextransucrase = assay: Inhibitory activity to dextransucrase (turbidity at 600 nm); assay type: biochemical, Streptococcus mutans ATCC 27607; conditions: qualitative statement; curve only in FIG. 4
Protocol: Dextransucrase was prepared as follows: Streptococcus mutans ATCC 27607 was inoculated to Brain Heart Infusion bouillon (Eiken Chemical Co.) and grown overnight at 37° C. The culture supernatant obtained by centrifugation was precipitated with ammonium sulfate at 50% saturation. The precipitated enzyme was desalted and purified by conventional procedures.

[1] = test system: Streptococcus mutans ATCC 27607; assay: Inhibition of Streptococcus mutans adherence (adhered plaque turbidity); assay type: cell-based; conditions: for Turbidity (600 nm): 37° C., 14 hours; for inhibition at 50 µg/mL / inhibition at 100 µg/mL: Streptococcus mutans, ATCC27607, 14 h
Protocol: Heart Infusion bouillon (Difco) containing various concentrations of sucrose was autoclaved and added aseptically with various amounts of ribocitrin aqueous solution (filter-sterilized) or sterile water for control (final volume is 3.0 ml and final concentrations are shown in Table 1). Each tube was inoculated with 1×10^5 CFU of Streptococcus mutans ATCC 27607 grown overnight at 37° C. in Brain Heart Infusion bouillon (Difco) and incubated anaerobically in a candle jar at 37° C. for 14 hours. The tube was positioned at an angle 30° from the horizontal. Nonadherent cells were removed by pouring off the broth and the test tube was washed three times with 3 ml of 5 mM phosphate buffer (pH 6.0). The adhered plaque (insoluble dextran and cellular aggregates formed as a result of insoluble dextran production) was suspended in 3 ml of phosphate buffer described above by mechanical stirring and by scraping the surface with a glass rod. Turbidity of the suspension was measured at 600 nm.

[2] = Solubility (characterizing properties); assay type: physicochemical; conditions: sodium salt
From the text: Ribocitrin in the form of its sodium salt has the following characterizing properties:
2. Soluble in water; insoluble in organic solvents.

O=C(O)CC[C@@](CC(=O)O)(O[C@H]1O[C@H](CO)[C@@H](O[C@H]2O[C@H](CO)[C@@H](O)[C@H]2O[C@H]2O[C@H](CO)[C@@H](O)[C@H]2O)[C@H]1O)C(=O)O [ribocitrin, 2-(S)-[O-α-D-ribofuranosyl-(1→2)-O-α-D-ribofuranosyl-(1→3)-α-D-ribofuranosyloxy]-1,2,4-butanetricarboxylic acid]
Inhibitory activity toward dextransucrase (in words) (dextransucrase): effective inhibitors of dextransucrase

O=C(O)CC[C@@](CC(=O)O)(O[C@H]1O[C@H](CO)[C@@H](O[C@H]2O[C@H](CO)[C@@H](O)[C@H]2O[C@H]2O[C@H](CO)[C@@H](O)[C@H]2O)[C@H]1O)C(=O)O [Ribocitrin (sodium salt)]
Turbidity (600 nm) ([1]; 50 μg/ml ribocitrin sodium salt, 0.5% sucrose): 0.510
Turbidity (600 nm) ([1]; 50 μg/ml ribocitrin sodium salt, 1.0% sucrose): 0.340
Turbidity (600 nm) ([1]; 50 μg/ml ribocitrin sodium salt, 2.0% sucrose): 0.333
Turbidity (600 nm) ([1]; 100 μg/ml ribocitrin sodium salt, 0.5% sucrose): 0.249
Turbidity (600 nm) ([1]; 100 μg/ml ribocitrin sodium salt, 1.0% sucrose): 0.173
Turbidity (600 nm) ([1]; 100 μg/ml ribocitrin sodium salt, 2.0% sucrose): 0.132
inhibition at 50 µg/mL ([1]; read-out: Percent inhibition, 50 μg/ml ribocitrin sodium salt, 0.5% sucrose, 37° C.): 17%
inhibition at 50 µg/mL ([1]; read-out: Percent inhibition, 50 μg/ml ribocitrin sodium salt, 1.0% sucrose, 37° C.): 43%
inhibition at 50 µg/mL ([1]; read-out: Percent inhibition, 50 μg/ml ribocitrin sodium salt, 2.0% sucrose, 37° C.): 33%
inhibition at 100 µg/mL ([1]; read-out: Percent inhibition, 100 μg/ml ribocitrin sodium salt, 0.5% sucrose, 37° C.): 60%
inhibition at 100 µg/mL ([1]; read-out: Percent inhibition, 100 μg/ml ribocitrin sodium salt, 1.0% sucrose, 37° C.): 71%
inhibition at 100 µg/mL ([1]; read-out: Percent inhibition, 100 μg/ml ribocitrin sodium salt, 2.0% sucrose, 37° C.): 73%
Solubility in organic solvents ([2]; organic solvents): insoluble
Solubility in water ([2]; water): Soluble
